One experiment has as its target T1, Rho-Kinase II (ROKα) (Rattus norvegicus, UniProt Q62868).
T1 construct: purchased Upstate Biotechnology
Put plainly: Inhibition of recombinant Rho-kinase II (ROKα), 33P-phosphate incorporation into S6 substrate peptide. The format is biochemical. Particulars: recombinant Rho-Kinase II (Upstate Biotechnology), S6 Phosphate-Acceptor-Peptide, 33P-ATP, 20 min at 37°C. From the text:
(§1) In einem in vitro-Assay mit rekombinanter Rho-Kinase-II wird die Hemmung des Enzyms untersucht. Die gefäßrelaxierende Wirkung wird an Phenylephrin-induzierten Kontraktionen isolierter Ringe der Kaninchen-Arteria-Saphena bestimmt. Die Eignung der erfindungsgemäßen Verbindungen zur Behandlung von kardiovaskulären Erkrankungen kann durch Untersuchung der blutdrucksenkenden Wirkung an narkotisierten Ratten gezeigt werden.
Die Aktivität der Rho-Kinase wird durch den Einbau von ^33P-Phosphat in ein Substratpeptid bestimmt. Dazu wird kommerziell erhältliche Rho-Kinase II (Upstate Biotechnology) in Gegenwart des S6 Phosphate-Acceptor-Peptides mit den Testsubstanzen oder einer Lösungsmittelkontrolle 10 min bei 37°C vorinkubiert. Anschliessend wird die Kinase-Reaktion durch Zugabe von ^33P-markiertem ATP gestartet. Nach 20 min bei 37°C wird die Reaktion durch Zugabe von H3PO4 gestoppt. Aliquots werden auf Filter pipettiert, die Filter gewaschen und anschließend mit Scintillator beschichtet. Die Radioaktivität der am Filter gebundenen ^33P-markierten Peptide wird in einem Micro-Beta-Counter gemessen. Der IC50-Wert entspricht der Konzentration einer Testsubstanz bei welcher der Rho-Kinase katalysierte Einbau von ^33P in das Peptid im Vergleich zu einer Lösungsmittelkontrolle um 50 % gehemmt ist. Die experimentellen Daten sind in der folgenden Tabelle zusammengestellt.

The subject of experiment [1] is Kaninchen-Arteria-Saphena. Put plainly: Vasorelaxant effect in vitro: phenylephrine-induced contractions of isolated rabbit saphenous artery rings.
Source text: as §1
3 mm breite Ringe der isolierten Kaninchen-Arteria-Saphena werden einzeln in 5 ml-Organbäder mit 37°C warmer, carbogenbegaster Krebs-Henseleit-Lösung gebracht. Der Gefäßtonus wird isometrisch erfasst und registriert. Kontraktionen werden durch Zugabe von 3x10^-8 g/ml Phenylephrin induziert und nach 4 min wieder ausgewaschen. Nach mehreren Kontrollzyklen wird die zu untersuchende Substanz mit jedem weiteren Durchgang in steigender Dosierung vorinkubiert und die darauffolgende Kontraktion mit der Höhe der letzten Kontrollkontraktion verglichen. Es wird die Konzentration errechnet, die erforderlich ist, um die Höhe des Kontrollwertes um 50 % zu reduzieren (IC50). Die experimentellen Daten sind in der folgenden Tabelle zusammengestellt.

Where [2] appears, read: isolated rings of rabbit Arteria saphena, contraction induced by 3x10^-8 g/ml Phenylephrin, concentration reducing control contraction by 50 %, read-out: IC50.

Like-named read-outs stand apart in the source and are kept apart here.

T1 sequence (Q62868 whole entry): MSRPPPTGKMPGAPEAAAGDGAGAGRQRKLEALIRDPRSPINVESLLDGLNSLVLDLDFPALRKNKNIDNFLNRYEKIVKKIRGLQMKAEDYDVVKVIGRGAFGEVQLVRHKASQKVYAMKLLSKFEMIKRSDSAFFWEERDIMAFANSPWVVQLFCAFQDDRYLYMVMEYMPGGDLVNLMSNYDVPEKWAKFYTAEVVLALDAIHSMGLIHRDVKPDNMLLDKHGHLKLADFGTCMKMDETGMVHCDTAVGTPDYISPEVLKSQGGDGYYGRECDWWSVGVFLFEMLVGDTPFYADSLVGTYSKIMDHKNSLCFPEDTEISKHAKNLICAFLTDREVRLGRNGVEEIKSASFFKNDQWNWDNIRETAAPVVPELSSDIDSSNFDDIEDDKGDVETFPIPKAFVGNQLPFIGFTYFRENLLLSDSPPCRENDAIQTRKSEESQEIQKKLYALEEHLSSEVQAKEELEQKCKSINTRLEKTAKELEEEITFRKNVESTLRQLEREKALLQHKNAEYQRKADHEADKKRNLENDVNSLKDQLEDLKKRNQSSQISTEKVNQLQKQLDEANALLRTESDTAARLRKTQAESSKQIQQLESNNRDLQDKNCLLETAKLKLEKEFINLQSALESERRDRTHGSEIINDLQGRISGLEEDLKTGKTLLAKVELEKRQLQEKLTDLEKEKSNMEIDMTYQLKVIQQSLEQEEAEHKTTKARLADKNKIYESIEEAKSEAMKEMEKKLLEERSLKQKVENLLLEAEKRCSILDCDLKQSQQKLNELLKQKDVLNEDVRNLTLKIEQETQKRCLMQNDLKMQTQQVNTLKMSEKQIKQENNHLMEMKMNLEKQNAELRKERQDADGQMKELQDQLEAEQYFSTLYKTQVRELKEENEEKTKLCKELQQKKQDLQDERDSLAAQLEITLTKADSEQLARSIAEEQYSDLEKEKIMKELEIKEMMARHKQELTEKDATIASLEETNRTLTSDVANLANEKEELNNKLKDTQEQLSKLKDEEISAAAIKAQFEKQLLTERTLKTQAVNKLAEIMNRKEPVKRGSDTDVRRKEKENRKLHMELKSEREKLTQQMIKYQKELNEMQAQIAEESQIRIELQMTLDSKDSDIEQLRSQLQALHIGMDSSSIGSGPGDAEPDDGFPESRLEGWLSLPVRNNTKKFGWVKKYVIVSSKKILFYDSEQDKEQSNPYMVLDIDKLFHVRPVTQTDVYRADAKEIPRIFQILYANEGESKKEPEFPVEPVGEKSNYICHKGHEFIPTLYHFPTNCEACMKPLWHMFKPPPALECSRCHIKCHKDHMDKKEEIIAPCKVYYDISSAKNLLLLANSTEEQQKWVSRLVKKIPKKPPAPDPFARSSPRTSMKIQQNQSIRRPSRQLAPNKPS

As usually defined, the IC50 is the concentration that gives 50% inhibition. With `Nc1nc(Nc2ccc(Sc3ccncc3)c(F)c2)cc(-c2ccc3ncccc3c2)n1` [Beispiel 1, N-[2-Amino-6-(6-chinolinyl)-4-pyrimidinyl]-N-[3-fluor-4-(4-pyridinylsulfanyl)-phenyl]amin], the IC50 at Rho-Kinase II (ROKα) was 7 nM; in experiment [1] (setting [2]), 760 nM.
For the compound `Nc1nc(Nc2ccc(Sc3ccncc3)c(F)c2)cc(N2C[C@H]3CCCN[C@H]3C2)n1` [Beispiel 20], the IC50 on Rho-Kinase II (ROKα) is 11 nM; in experiment [1], 1700 nM.
Take `Nc1nc(Nc2cc(F)c(Sc3ccncc3)c(Cl)c2)cc(N2C[C@H]3CCCN[C@H]3C2)n1` [Beispiel 22]: the IC50 is 6 nM on Rho-Kinase II (ROKα) and 900 nM in experiment [1] (setting [2]).
With `Nc1nc(Nc2ccc(Sc3ccncc3)c(F)c2)cc(Oc2cccc(Cl)c2)n1` [Beispiel 56], the IC50 at Rho-Kinase II (ROKα) was determined as 70 nM.
Turning to `Nc1nc(Nc2cc(F)c(Sc3ccncc3)c(F)c2)cc(N2C[C@H]3CCCN[C@H]3C2)n1` [Beispiel 59], the IC50 on Rho-Kinase II (ROKα) is 5 nM; in experiment [1] (setting [2]) it was 360 nM.

Source of the values: patent EP1515965B1, “PHENYLAMINOPYRIMIDINES AND THEIR USE AS RHO-KINASE INHIBITORS” (Bayer Schering Pharma Aktiengesellschaft, priority 2002, dated 2003).
